The source of these data is US9795647B2, “Compositions and methods for modulating inflammatory potential” (New Chapter Inc., priority 2009, dated 2017).

A value given as a limit tells only on which side of the number the result lay.

One series concerns A549 cells. Description: Proliferation of A549 nonsmall cell lung cancer cells (overexpress COX-2). Format: cell-based, human. The following applies: A549 overexpress COX-2. From the text: The antitumor efficacy of specifically formulated fish oil 30 diets was studied in human lung cancer A549 xenograft (over expression of COX-2) and H1299 xenograft (lack of COX-2 expression).
FIG. 17 illustrates the relative effect of WholeMega and two commercial fish oil products to inhibit proliferation of human A549 nonsmall cell lung cancer cells (top figure) and human H1299 nonsmall cell lung cancer cells (bottom figure). A549 cells overexpress COX-2, as many cancer cells are known to do. […] The A549 cells over-express COX-2 which normally results in an over-expression/production of PGE2. When provided with an alternate substrate, however, such as fish oil EPA, the resulting product is PGE3 rather than PGE2. […] Clearly, at least one structural feature unique to the Wholemega composition contributes an additional anti-tumor effect. One possibility is that that other oils in Wholemega (omega-5, omega-7 and omega-9 oils), that are not present in the other two fish oils, contribute to an additional inhibitory effect on the growth of the cancer cells. Another possibility would be the relative fractions of certain oils to one another. Yet another possibility would be the herbal oil component, e.g. SCE rosemary and SCE oregano) contribute an added inhibitory effect on the growth of the cancer cells. […]

The subject of a further series is gram-positive bacteria. The following applies: purified cPA (>99%); cited from earlier work.
For the next series, the system named is Selenomonas artemidis. The following applies: only one of 45 compounds surveyed; cited from earlier work.
In a further series the test system is beta-cell. The following applies: 0.5 mmol/l, medium with 5.5, 11.1 or 33.3 mmol/l glucose, 4 days; cited from earlier work.

Take `CCCCC[C@H](O)/C=C/[C@H]1[C@H](O)CC(=O)[C@@H]1C/C=C\CCCC(=O)O` [PGE2]: the “effect on proliferation of A549 cells” value in the series with A549 cells is on record as “slightly stimulates proliferation”.

As for `CC/C=C\C[C@H](O)/C=C/[C@H]1[C@H](O)CC(=O)[C@@H]1C/C=C\CCCC(=O)O` [PGE3], in the series with A549 cells, the “effect on proliferation of A549 cells” value is listed as “inhibits proliferation”.

Turning to `CCCCCCCCC/C=C\CCCCC(=O)O` [cPA, palmitoleic acid (C16:1delta6, cPA)], in the series with gram-positive bacteria, the “minimal inhibitory concentration (MIC)” value is 10 to 20 µg/mL.

For the compound `CCCCC=CCCCCCCCC(=O)O` [myristoleic acid, 9-tetradecenoic acid], the “inhibitory concentration towards S. artemidis” value with Selenomonas artemidis is less than 100 micrograms/ml.

For `CCCCCC/C=C\CCCCCCCC(=O)O` [palmitoleic acid], the “beta-cell DNA fragmentation” value in the series on beta-cell was “did not affect”.
